Where two headings read alike, the source gives them in different places.
Key:
α4β2* = settings: read-out: α4β2* Ki, cited from earlier work
α3β4* = settings: read-out: α3β4* Ki, cited from earlier work
α7* = settings: read-out: α7* Ki, cited from earlier work
(α1)2β1γδ = settings: read-out: (α1)2β1γδ Ki, cited from earlier work
α4β2* nAChR = α4β2* nAChR (Rattus norvegicus, UniProt P09483+P12390); assay: Competition binding assay using
α3β4 nAChR = α3β4 nAChR (Homo sapiens, UniProt P30926+P32297); assay: Two-electrode voltage clamp, nAChRs expressed in Xenopus oocytes; type: cell-based; settings: 1 or 10 µM, relative to ACh control; co-applied at 1 µM with ACh
α7 nAChR = α7 nAChR (Homo sapiens, UniProt P36544); assay: as above; type: cell-based; settings: 1 or 10 µM, relative to ACh control; co-applied at 1 µM with ACh
(α1)2β1γδ nAChR = (α1)2β1γδ nAChR (Tetronarce californica, UniProt P02710+P02714+P02718); assay: Competition binding assay using; parameters: species or system Torpedo californica
muscle nAChR α1β1εδ = muscle nAChR α1β1εδ (Mus musculus, UniProt P02716+P04756+P20782); assay: Two-electrode voltage clamp, nAChRs expressed in Xenopus oocytes; type: cell-based; settings: 1 or 10 µM, relative to ACh control; co-applied at 1 µM with ACh

CN1C[C@@H]2C[C@H](C1)C1CCCC(=O)N1C2 (some centres unmarked) [Compound 7]
Ki (α4β2*; ref [44]): 34 nM
Ki (α3β4*; ref [44]): 2450 nM
Ki (α7*; ref [44]): 10000 nM
Ki ((α1)2β1γδ; ref [44]): > 50 µM

O=c1cccc2n1C[C@@H]1CNC[C@H]2C1 [3 (Cyt), cytisine]
Ki (α4β2*; ref [41],[44],[45]): 0.122 nM

CC(=O)N1C[C@@H]2C[C@@H](CN(C)C2)C1 [Compound 70, 1-((1R,5S)-7-methyl-3,7-diazabicyclo[3.3.1]nonan-3-yl)ethanone]
fold lower affinity for the α4β2* subtype (α4β2* nAChR; compared to acetylbispidine 8): 35 fold

CCCC(=O)N1C[C@@H]2CNC[C@@H](C2)C1.O=C(O)/C=C/C(=O)O [Compound 16, (1R,5S)-1-(3,7-diazabicyclo[3.3.1]nonan-3-yl)butan-1-one]
fold higher affinity for the α4β2* receptor (α4β2* nAChR; α4β2* versus α3β4*): about 74 fold
functional profile at α3β4* (α3β4 nAChR): Possible agonistic effects
functional profile at α7 (α7 nAChR): agonism

C1NCC2CNCC1C2 [bispidine, 3,7-diazabicyclo[3.3.1]nonane]
functional profile at α7 (α7 nAChR): weak activation

O=C(N1CCC(Cc2ccccc2)CC1)N1C[C@@H]2CNC[C@@H](C2)C1 [Compound 69, (1R,5S)-3,7-diazabicyclo[3.3.1]nonan-3-yl(4-benzylpiperidin-1-yl)methanone]
Ki ((α1)2β1γδ nAChR): > 5 µM

O=C(O)/C=C/C(=O)O.O=C(c1cccc(Cl)c1)N1C[C@@H]2CNC[C@@H](C2)C1 [Compound 22, (1R,5S)-3,7-diazabicyclo[3.3.1]nonan-3-yl(3-chlorophenyl)methanone]
affinity for the α4β2* subtype in words (α4β2* nAChR): inactive

CCN(CC)C(=O)N1C[C@@H]2CNC[C@@H](C2)C1.O=C(O)/C=C/C(=O)O [Compound 42, (1R,5S)-N,N-diethyl-3,7-diazabicyclo[3.3.1]nonane-3-carboxamide]
affinity for the α4β2* subtype in words (α4β2* nAChR): lost its affinity

O=C(O)/C=C/C(=O)O.O=C(c1cccc([N+](=O)[O-])c1)N1C[C@@H]2CNC[C@@H](C2)C1 [Compound 23, (1R,5S)-3,7-diazabicyclo[3.3.1]nonan-3-yl(3-nitrophenyl)methanone]
affinity for the α4β2* subtype in words (α4β2* nAChR): inactive

O=[N+]([O-])c1ccc(S(=O)(=O)N2C[C@@H]3CNC[C@@H](C3)C2)cc1 [Compound 40, (1R,5S)-3-(4-nitrophenylsulfonyl)-3,7-diazabicyclo[3.3.1]nonane]
Ki ((α1)2β1γδ nAChR): > 10 µM

Cl.O=S(=O)(c1ccc(Br)cc1)N1C[C@@H]2CNC[C@@H](C2)C1 [Compound 39, (1R,5S)-3-(4-bromophenylsulfonyl)-3,7-diazabicyclo[3.3.1]nonane]
affinity for the α4β2* subtype in words (α4β2* nAChR): nonactive

CC(=O)N1C[C@@H]2CNC[C@@H](C2)C1.O=C(O)/C=C/C(=O)O [Compound 8, (1R, 5S)-1-(3,7-diazabicyclo[3.3.1]nonan-3-yl)ethanone]
functional profile at α7 (α7 nAChR): agonism

O=C(N1CCCC1)N1C[C@@H]2CNC[C@@H](C2)C1.O=C(O)/C=C/C(=O)O [Compound 67, (1R,5S)-3,7-diazabicyclo[3.3.1]nonan-3-yl(pyrrodin-1-yl)methanone]
affinity for the α4β2* subtype in words (α4β2* nAChR): not active
Ki ((α1)2β1γδ nAChR): > 10 µM

O=C1CCCC2[C@H]3CNC[C@H](C3)CN12 (some centres unmarked) [Compound 6, tetrahydrocytisine]
Ki (α4β2*; ref [44]): 17 nM
Ki (α3β4*; ref [44]): 385 ± 6 nM
Ki (α7*; ref [44]): 2000 nM

O=C(CC1CCCC1)N1C[C@@H]2CNC[C@@H](C2)C1.O=C(O)/C=C/C(=O)O [Compound 55, 1-((1R,5S)-3,7-diazabicyclo[3.3.1]nonan-3-yl)-2-cyclopentylethanone]
functional profile at α3β4* (α3β4 nAChR): essentially no effect
functional profile at α7 (α7 nAChR): apparent antagonistic activity
functional profile at muscle type (muscle nAChR α1β1εδ): apparent antagonistic activity

O=C(C1CCCC1)N1C[C@@H]2CNC[C@@H](C2)C1.O=C(O)/C=C/C(=O)O [Compound 43, (1R,5S)-3,7-diazabicyclo[3.3.1]nonan-3-yl(cyclopentyl)methanone]
functional profile at α3β4* (α3β4 nAChR): Possible agonistic effects
functional profile at α7 (α7 nAChR): agonism

O=c1c(-c2cccnc2)ccc2n1C[C@@H]1CNC[C@H]2C1 [4 (3PC), 3-(pyridine-3-yl)-cytisine]
Ki ((α1)2β1γδ; ref [41],[44],[45]): > 5 µM

CS(=O)(=O)N1C[C@@H]2CNC[C@@H](C2)C1 [Compound 34, (1R,5S)-3-(methylsulfonyl)-3,7-diazabicyclo[3.3.1]nonane]
Ki ((α1)2β1γδ nAChR): > 10 µM

CCC(=O)N1C[C@@H]2CNC[C@@H](C2)C1.O=C(O)/C=C/C(=O)O [Compound 15, (1R,5S)-1-(3,7-diazabicyclo[3.3.1]nonan-3-yl)propan-1-one]
functional profile at α3β4* (α3β4 nAChR): Possible agonistic effects

c1cnc2cc3c(cc2n1)[C@@H]1CNC[C@H]3C1 [5 (Var), varenicline]
Ki (α4β2*; ref [42]): 0.06 nM
Ki (α3β4*; ref [42]): 240 nM
Ki (α7*; ref [42]): 322 nM
Ki ((α1)2β1γδ; ref [42]): 3.54 µM

CN(C)C(=O)N1C[C@@H]2CNC[C@@H](C2)C1.O=C(O)/C=C/C(=O)O [Compound 41, (1R,5S)-N,N-dimethyl-3,7-diazabicyclo[3.3.1]nonane-3-carboxamide]
fold lower affinity for the α4β2* nAChR (α4β2* nAChR; compared to carboxamide analog 17): 10 fold
